Data taken from ChEMBL document CHEMBL5442379, “ASAP - SARS-CoV-2 nsp3 macrodomain single point” (2024).

Biological target: Replicase polyprotein 1ab (Severe acute respiratory syndrome coronavirus 2) (UniProt P0DTD1)
[1] = Concentration 49.75 uM, Number of replicates 2.0, Standard deviation 0.286 %

Description: Functional biochemical assay to identify treatments for viral infectious disease that targets SARS-COV-2 nsp3 macrodomain, whereby the mechanism of action displaces an ADP-Ribose modified peptide from the binding site. Utilizing a time-resolved fluorescence method to measure binding by reading the emitted fluorescence intensity in two wavelengths.

## O=C(Nc1ccccc1)Nc1ccc(C(=O)N2CCc3nc[nH]c3C2)cc1
Concentration 49.75 uM, Number of replicates 2.0, Standard deviation 2.91 %
  inhibition: -3.02%
Concentration 99.5 uM, Number of replicates 2.0, Standard deviation 5.124 %
  inhibition: -2.38%

## CNC(=O)c1cccc(CNC(=O)c2ncnc3[nH]ccc23)c1
Concentration 50.0 uM, Number of replicates 2.0, Standard deviation 1.029 %
  inhibition: -5.91%

## NC1(C(=O)N(CCC(=O)N2CCNCC2)Cc2cccc(Cl)c2)CC(F)(F)C1
[1]
  inhibition: -3.48%
Concentration 99.5 uM, Number of replicates 2.0, Standard deviation 3.805 %
  inhibition: -1.17%

## O=C(NCc1ncccn1)c1cnn2ccc(C3CCN(C(=O)c4ccccc4)CC3)cc12
Concentration 49.75 uM, Number of replicates 2.0, Standard deviation 2.653 %
  inhibition: -0.074%
Concentration 99.5 uM, Number of replicates 2.0, Standard deviation 0.514 %
  inhibition: -6.66%

## O=C(N[C@@H]1CCCNC1=O)c1cnn2ccc(C3CCN(C(=O)c4ccccc4)CC3)cc12
Concentration 49.75 uM, Number of replicates 2.0, Standard deviation 2.776 %
  inhibition: -3.16%
Concentration 99.5 uM, Number of replicates 2.0, Standard deviation 2.396 %
  inhibition: -4.87%

## Cc1cc(CNC(=O)c2cnn3ccc(C4CCN(C(=O)c5ccccc5)CC4)cc23)n(C)n1
Concentration 49.75 uM, Number of replicates 2.0, Standard deviation 3.014 %
  inhibition: -5.51%
Concentration 99.5 uM, Number of replicates 2.0, Standard deviation 0.205 %
  inhibition: -8.12%

## O=C(CCN(Cc1cccc(Cl)c1)C(=O)C1CCC(O)CC1)N1CCNCC1 (stereo not drawn)
Concentration 49.75 uM, Number of replicates 2.0, Standard deviation 4.563 %
  inhibition: -4.32%
Concentration 99.5 uM, Number of replicates 2.0, Standard deviation 1.877 %
  inhibition: 0.465%

## O=C(Nc1cnc2[nH]ncc2c1)c1ccncc1Cl
Concentration 50.0 uM, Number of replicates 2.0, Standard deviation 1.31 %
  inhibition: -2.75%
Concentration 50.0 uM, Number of replicates 2.0, Standard deviation 1.931 %
  inhibition: -0.272%
Concentration 100.0 uM, Number of replicates 2.0, Standard deviation 1.828 %
  inhibition: 2.96%

## CS(=O)(=O)N1CC[C@@H](COC(=O)c2ncnc3[nH]ccc23)C1
Concentration 50.0 uM, Number of replicates 2.0, Standard deviation 2.196 %
  inhibition: 0.187%

## NCC(F)(F)CNC(=O)c1ccc(NC(=O)Nc2ccccc2)cc1
Concentration 49.75 uM, Number of replicates 2.0, Standard deviation 4.8 %
  inhibition: -0.965%
Concentration 99.5 uM, Number of replicates 2.0, Standard deviation 1.089 %
  inhibition: -1.17%

## O=C(Nc1ccccc1)Nc1ccc(C(=O)N2CCn3nccc3C2)cc1
Concentration 49.75 uM, Number of replicates 2.0, Standard deviation 2.554 %
  inhibition: -3.11%
Concentration 99.5 uM, Number of replicates 2.0, Standard deviation 2.469 %
  inhibition: 2.3%

## CN1CCC[C@@H]1CNC(=O)c1cnn2ccc(C3CCN(C(=O)c4ccccc4)CC3)cc12
Concentration 49.75 uM, Number of replicates 2.0, Standard deviation 1.011 %
  inhibition: -4.43%
Concentration 99.5 uM, Number of replicates 2.0, Standard deviation 3.797 %
  inhibition: 1.5%

## NS(=O)(=O)c1ccccc1CNc1ncnc2[nH]ccc12
Concentration 50.0 uM, Number of replicates 2.0, Standard deviation 10.219 %
  inhibition: 3.66%

## c1ccc(Cn2ncc3c2CCC[C@@H]3Nc2ncnc3[nH]ccc23)cc1
Concentration 50.0 uM, Number of replicates 2.0, Standard deviation 3.356 %
  inhibition: 5.85%

## Cc1ccc(S(=O)(=O)Nc2ccccc2F)cc1C(=O)Nc1cnc2[nH]ncc2c1
Concentration 50.0 uM, Number of replicates 2.0, Standard deviation 3.248 %
  inhibition: 0.764%

## CC(C)(c1noc(-c2ncnc3[nH]ccc23)n1)S(C)(=O)=O
Concentration 50.0 uM, Number of replicates 2.0, Standard deviation 1.059 %
  inhibition: -0.756%

## O[C@@]1(C(F)(F)F)CCCN(c2ncnc3n[nH]cc23)CC1
Concentration 50.0 uM, Number of replicates 2.0, Standard deviation 1.087 %
  inhibition: -4.14%

## c1coc(CNc2ncnc3[nH]cnc23)c1
Concentration 50.0 uM, Number of replicates 2.0, Standard deviation 0.16 %
  inhibition: 2.63%

## O=C1CCC[C@@H](C(=O)N(CCC(=O)N2CCNCC2)Cc2cccc(Cl)c2)N1
Concentration 49.75 uM, Number of replicates 2.0, Standard deviation 3.727 %
  inhibition: 2.42%
Concentration 99.5 uM, Number of replicates 2.0, Standard deviation 3.7 %
  inhibition: -3.31%

## O=C(NCc1cn[nH]c1)c1cnn2ccc(C3CCN(C(=O)c4ccccc4)CC3)cc12
Concentration 49.75 uM, Number of replicates 2.0, Standard deviation 0.103 %
  inhibition: -2.37%
Concentration 99.5 uM, Number of replicates 2.0, Standard deviation 3.225 %
  inhibition: -4.5%

## C=CCn1c(Cc2ccccc2)nnc1Sc1ncnc2[nH]ccc12
Concentration 50.0 uM, Number of replicates 2.0, Standard deviation 4.634 %
  inhibition: -7.71%

## Cc1ccc(C(=O)N2CCC(c3ccn4ncc(C(=O)N5CCCCC5)c4c3)CC2)c(=O)[nH]1
Concentration 49.75 uM, Number of replicates 2.0, Standard deviation 1.294 %
  inhibition: 3.31%
Concentration 99.5 uM, Number of replicates 2.0, Standard deviation 2.376 %
  inhibition: 3.66%

## O=C(Nc1cnc2[nH]ncc2c1)C1(c2ccccc2)CC1
Concentration 50.0 uM, Number of replicates 2.0, Standard deviation 8.824 %
  inhibition: 3.21%

## C[C@]1(C(=O)N(CCC(=O)N2CCNCC2)Cc2cccc(Cl)c2)CCCN1
Concentration 49.75 uM, Number of replicates 2.0, Standard deviation 5.247 %
  inhibition: 1.4%
Concentration 99.5 uM, Number of replicates 2.0, Standard deviation 0.402 %
  inhibition: 2.13%

## C#Cc1cccc(NC(=O)CN(C)c2ncnc3[nH]ccc23)c1
Concentration 50.0 uM, Number of replicates 2.0, Standard deviation 4.462 %
  inhibition: 4.4%

## O=C(CCCc1cccnc1)Nc1cnc2[nH]ncc2c1
Concentration 50.0 uM, Number of replicates 2.0, Standard deviation 5.838 %
  inhibition: -3.65%

## Cc1c(-c2cnc3nc[nH]c(=O)c3c2)ccc2[nH]ncc12
Concentration 49.75 uM, Number of replicates 2.0, Standard deviation 0.542 %
  inhibition: -3.12%
Concentration 99.5 uM, Number of replicates 2.0, Standard deviation 2.71 %
  inhibition: -4.36%

## O=C1CCN(C(=O)c2cnn3ccc(C4CCN(C(=O)c5ccccc5)CC4)cc23)CCN1
Concentration 49.75 uM, Number of replicates 2.0, Standard deviation 0.064 %
  inhibition: -2.4%
Concentration 99.5 uM, Number of replicates 2.0, Standard deviation 5.989 %
  inhibition: -7.81%

## CN(Cc1cn(C)nn1)C(=O)c1ccc(NC(=O)Nc2ccccc2)cc1
Concentration 49.75 uM, Number of replicates 2.0, Standard deviation 0.56 %
  inhibition: 0.883%
Concentration 99.5 uM, Number of replicates 2.0, Standard deviation 3.63 %
  inhibition: 0.566%

## CC(C)[C@@H](Nc1ncnc2[nH]ccc12)C(=O)N(C)Cc1nnc2n1CCC2
Concentration 49.75 uM, Number of replicates 2.0, Standard deviation 4.689 %
  inhibition: -8.89%
Concentration 99.5 uM, Number of replicates 2.0, Standard deviation 1.151 %
  inhibition: -6.14%

## C[C@H](NC(=O)c1ccc(NC(=O)Nc2ccccc2)cc1)[C@@H]1CCCO1
Concentration 49.75 uM, Number of replicates 2.0, Standard deviation 1.099 %
  inhibition: -4.28%
Concentration 99.5 uM, Number of replicates 2.0, Standard deviation 2.587 %
  inhibition: -4.86%

## O=C(CCN(Cc1cccc(Cl)c1)C(=O)[C@@H]1C[C@@H](O)CN1)N1CCNCC1
Concentration 49.75 uM, Number of replicates 2.0, Standard deviation 1.654 %
  inhibition: -3.54%
Concentration 99.5 uM, Number of replicates 2.0, Standard deviation 6.509 %
  inhibition: 4.74%

## Cc1[nH]c2ncnc(NC(=O)c3ncn(-c4ccccc4)n3)c2c1C
Concentration 50.0 uM, Number of replicates 2.0, Standard deviation 1.407 %
  inhibition: 7.1%

## O=C(c1c[nH]nn1)N1CCC(c2ccn3ncc(C(=O)N4CCCCC4)c3c2)CC1
[1]
  inhibition: 14.7%
Concentration 99.5 uM, Number of replicates 2.0, Standard deviation 4.61 %
  inhibition: 25.6%

## Cc1[nH]c2ncnc(NC(=O)C3CCC(F)(F)CC3)c2c1C
Concentration 50.0 uM, Number of replicates 2.0, Standard deviation 0.519 %
  inhibition: 2.15%

## CC(C)[C@@H](CCN(C)C(=O)C1CCc2ccccc2CC1)Nc1ncnc2[nH]ccc12
Concentration 49.75 uM, Number of replicates 2.0, Standard deviation 5.252 %
  inhibition: -5.62%

## CN(C(=O)c1ccc(NC(=O)Nc2ccccc2)cc1)[C@@H]1CN2CCC1CC2
Concentration 49.75 uM, Number of replicates 2.0, Standard deviation 0.826 %
  inhibition: -4.01%
Concentration 99.5 uM, Number of replicates 2.0, Standard deviation 1.597 %
  inhibition: 2.77%

## COc1nc2cc(NC(=O)c3cc(N4CCNC4=O)ccc3F)ccc2[nH]1
Concentration 50.0 uM, Number of replicates 2.0, Standard deviation 4.804 %
  inhibition: -4.21%

## NC(=O)c1ncccc1C(=O)N1CCC(c2ccn3ncc(C(=O)N4CCCCC4)c3c2)CC1
Concentration 49.75 uM, Number of replicates 2.0, Standard deviation 4.804 %
  inhibition: 20%
Concentration 99.5 uM, Number of replicates 2.0, Standard deviation 1.17 %
  inhibition: 36%
